Laboratory results: patent US20040265323A1, “Compositions comprising pathogen elicited epithelial chemoattractant (eicosanoid hepoxilin A3), inhibitors thereof and methods of use thereof” (priority 2003, published 2004)
Entries after “also recorded” stand apart in the source; their conditions may differ.

What was measured:
[1] = system: intestinal inflammation (rectal prolapse); test: Intestinal inflammation in SCID mice induced by CD45RBHI T cell transfer; type: in vivo
Protocol: The therapeutic benefits of baicalein on subsiding intestinal inflammation, which was induced in SCID mice by i.v. injection of CD4+ CD45RB HI T cells, was examined. For these experiments, spleens were collected from 6-12 week old donor mice (BALB/c) and splenocytes were isolated by mechanical homogenization of whole spleens. The CD4+ T cells were selected by positive selection. In brief, a cell suspension of pooled splenocytes from 4-5 donor mice was incubated with anti-CD4 (L3T4) antibody coated magnetic beads (DYNABEADS: Catalog # 114.05, Dynal, Lake Success, N.Y.) for 20-30 minutes at 4° C. and separated by magnetic cell sorting with a Dynal Magnetic Particle Concentrator (MPC). Cells were removed from the cell-bead complex with Dynal DETACHaBEAD, and isolated from beads using a Dynal MPC. The resulting CD4+ enriched population was >90% pure. The cell suspension was then incubated with Fc block (anti-CD32, PharMingen, 01241A) and labeled with anti-CD4-FITC (PharMingen, 9004D) and anti-CD45RB-PE (PharMingen, 01145A), for 30 minutes at 4° C. washed, and sorted using a FACSTAR (Becton Dickinson, San Jose, Calif.) cell sorter. Double positive cells (CD4+/CD45Rb+) were collected, selecting the cells that expressed high levels of CD45Rb (brightest 45%). The collected cell population was >90% pure and viable. Cells were then washed in cold […] buffered saline (PBS Sigma D8662) and resuspended in PBS. Balb/c SCID mice, aged 6-12 weeks, were injected intravenously with CD45RBHI Tcells in the tail vein.
Ten weeks post CD45RBHI T cell transfer, roughly 30% of SCID mice developed intestinal inflammation, characterized by mucin depletion, goblet cell loss, epithelial hyperplasia and finally rectal prolapse (FIG. 8). These mice were divided equally among treatment groups The first treatment group received buffer control alone (sterile Hanks Balanced Salts Solution (“HBSS”)) and the second and the third treatment groups received low (2 μM) and high (200 μM) doses of baicalein i.v., respectively, every other day along with a vehicle control. […]

[2] = system: PEEC/hepoxilin A3 secretion; test: Apical PEEC/hepoxilin A3 release from S. typhimurium infected T84 cell monolayers; type: cell-based, human; conditions: S. typhimurium infected T84 with 12-LO inhibitor
From the text: T84 cell monolayers were infected with S. typhimurium in the absence or presence of the 12-LO enzyme inhibitor and apical supernatants were examined for PEEC bioactivity. […] Moreover, since it had been previously shown that S. typhimurium via its effector SipA initiates an ARF6-dependent lipid-signaling cascade that directs the activation of PKC and release of PEEC, it was further examined if blocking PKC activity (which would occur upstream of 12-LO) also corresponds with a reduction in hepoxilin A3 bioactivity and release, as one would predict.

[3] = system: S. typhimurium-infected human intestinal xenografts; test: Histopathology of human intestinal xenografts infected with S. typhimurium; type: in vivo; conditions: 1 μM in 100 μl intralumenally 2 hours prior to infection; xenografts in SCID mice; 15 hours after infection
Protocol: Further, the effect of baicalein on S. typhimurium pathology in human intestinal xenografts was determined (Savidge et al., 1995) (FIG. 7). The human fetal intestinal xenograft model used in the present study has been previously described in detail (Savidge et al., 1995). Briefly, human fetal small intestine (n=3, gestational age 10-14weeks) was transplanted subcutaneously into C.B-17 severe-combined immunodeficient (SCID) mice. Xenografts were allowed to develop for a period between 10-20 weeks before use at which time the epithelium and underlying mucosa is fully differentiated (Savidge et al., 1995). Xenografts were infected with approximately 5×10^7 wild type S. typhimurium SL1344 in sterile HBSS(+) buffer in a 100 μl volume injected intralumenally by subcutaneous injection. Xenografts receiving the drug treatment were injected with 1 μM baicalein in a 100 μl volume 2 hours prior to infection with S. typhimurium (in the continued presence of 1 μM baicalein). Xenograft tissue was removed 15 hours after infection, extensively washed, and snap frozen in OCT compound.
A severe vascular disturbance was also noted. These outcomes are all consistent with the clinical manifestations observed from S. typhimurium infection in humans.

MRP-2 = MRP-2 expression in large bowel of CD45Rbhi T cell transferred mice; type: in vivo; conditions: sick mice after treatment, FIG. 11C
Protocol: The upper third of the large bowel from these mice were excised, and fixed in OCT. Slides from these tissues were prepared and fluorescently probed for MRP-2 expression. […] Thus, in the efflux pathway for hepoxilin A3, MRP-2 is in fact activated during the disease phase and suppressed upon baicalein treatment

[4] = system: S. typhimurium-induced PMN transepithelial migration, T84 cells; test: Inhibition of S. typhimurium-induced PMN transepithelial migration across T84 monolayers; type: cell-based, human; conditions: T84 pre-treated: baicalein 48 hours, caffeic acid 24 hours
From the text: It was further examined if hepoxilin A3 acts in a gradient fashion to drive PMN migration from the basolateral to the apical epithelial surface. For these experiments, the physiologically directed (basolateral-to-apical) PMN transepithelial migration assay using cell culture inserts of inverted T84 monolayers has been used (McCormick et al., 1993; Parkos et al., 1992). Human PMN were isolated from normal volunteers, as described elsewhere (Parkos et al., 1992; Henson and Oades, 1975). […] PMN which completely traversed the monolayer were represented as the number of PMN (CE/ml in a total volume of 1 ml). Values were expressed as the mean and SD of an individual experiment done in triplicate repeated at least 3 times.
Hepoxilin A3 is formed via the 12-lipoxygenase (LO) metabolism pathway of arachidonic acid. Therefore, the involvement of the 12-LO pathway in the ability of the enteric pathogen, S. typhimurium, to induce PMN transepithelial migration and elicit PEEC secretion was tested. […] For 12-LO inhibition, HBSS(+)-washed T84 cell monolayers were incubated in the presence baicalein [stock concentration at 1 mM in DMSO] for 48 hours at 37° C. Subsequently, S. typhimurium SL1344 was added to the apical surface of the T84 monolayers and after an incubation of 1 hour at 37° C., the cells were washed free of non-adherent bacteria and then processed for the PMN transmigration assay. […] For 5-LO inhibition, the T84 cells were washed with HBSS(+) and then were incubated for 24 hours in the presence of caffeic acid (stock concentration at 22 mM in DMSO). Both inhibitors were purchased form Biomol, Plymouth Meeting, Pa.
In each instance, the T84 cell monolayers were incubated for […] in the presence of the inhibitor prior to the addition of S. typhimurium.

IL-8 secretion = IL-8 secretion by S. typhimurium infected T84 cell monolayers; type: cell-based, human; conditions: S. typhimurium infected T84, baicalein 1 μM

## O=c1cc(-c2ccccc2)oc2cc(O)c(O)c(O)c12 [baicalein]
[1]; high dose 200 μM i.v. every other day, 2.5 weeks
  rectal prolapse: complete recovery of rectal prolapse
[1]; low dose 2 μM i.v. every other day, 2.5 weeks
  health status and rectal prolapse: no improvement of their health status and rectal prolapse
[1]; therapeutic regimen, after 2 weeks
  illness (rectal prolapse, diarrhea, weight loss): resolved the illness
[2]
  PEEC secretion (bioactivity of apical supernatants): significant decrease in PEEC secretion; also recorded: dramatically reduced
[3]
  histopathology / severity of intestinal inflammation: only minimal alterations detectable; also recorded: significantly reduced; also recorded: significantly less severe
MRP-2
  MRP-2 expression at apical surface of intestinal epithelium: completely suppressed
[4]
  S. typhimurium-induced PMN transepithelial migration with lipoxygenase inhibitor: attenuated S. typhimurium-induced PMN transepithelial migration in a concentration-dependent fashion; also recorded: dose dependent decrease
IL-8 secretion
  IL-8 secretion: 577 ± 35 pg/mL
